In US4923882A, “Novel amine derivatives, salts thereof and an anti-ulcer agent containing the same” (Toyama Chemical Co., Ltd., priority 1982, dated 1990):
pIC50: −log10 of the molar value.

Assays:
gastric acid secretion [1] = experiment: Inhibitory effect on gastric acid secretion, perfused stomach preparation of anesthetized rat (histamine stimulated); format: in vivo, Wistar strain rats; conditions: intravenous
How it was run: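 Urethane-anesthetized, 18 h-fasted male Wistar rats (200 to 250 g); stomach perfused at 1 ml/min with saline at pH about 10, with perfusate pH recorded continuously under iv histamine 30 μg/kg/min. Drug given iv cumulatively once secretion steady (pH 3.3±0.2), each dose after a plateau; n=3 per dose.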

gastric acid secretion [2] = experiment: Inhibitory effect on gastric acid secretion, pylorus ligation method (histamine); format: in vivo, Wistar strain rats; conditions: Rattus norvegicus; 1 mg/kg, oral; histamine 25 mg/kg s.c.; read-out: Inhibition percentage (gastric acid secretion)
How it was run: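 Male Wistar rats (190–230 g, 5–6/group) fasted 35 h, dosed orally; pylorus ligated under ether 2 h later. Stomach removed after 3 h, gastric juice volume measured and acidity titrated with 0.1N NaOH to pH 7.0. Percent inhibition calculated against saline controls.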

[3] = system: isolated guinea pig atrium; experiment: Effect on isolated guinea pig atrium (histamine-induced heart rate); set-up: species or system Hartley guinea pig
Experimental: Hartley guinea pig (male, 300 to 400 g) was killed by blood-letting, immediately after which the heart was isolated, and the right atrium was separated in a Krebs-Henseleit solution and used as a preparation. […] The preparation was trained in a bath fluid, and after the heart rate became constant, 5×10^-6 M of histamine was administered. After the heart rate became constant, each drug was administered cumulatively.
The inhibition percentage was determined from the following equation: [formula] HRmin : heart rate before the administration of histamine HRmax : heart rate after the administration of histamine
HRx : heart rate at the time of the administration of each drug.
The number of experiments were five for each dose.

Indomethacin ulcer = experiment: Anti-ulcer activity: Indomethacin ulcer; format: in vivo, Wistar strain rats
Experimental: Six Wistar strain rats (male, 200 to 250 g) per group were starved for 24 hours, after which each drug was orally administered, and after 30 minutes, Indomethacin was injected subcutaneously at a dose of 30 mg/kg. After 5 hours, each rat was killed, and the stomach was removed and fixed with 3% formalin, after which the lengths of ulcers formed in the stomach was measured under the binocular stereoscopic microscope (10×), and the sum total of the lengths was taken as the ulcer index. To a control group was administered 0.5% Tween 80 physiological saline. The inhibition percentage was determined from the following equation: [formula]

[4] = system: Mepirizole-induced duodenal ulcer; experiment: Anti-ulcer activity: Mepirizole-induced duodenal ulcer; format: in vivo, Wistar strain rats
Experimental: (ii) Mepirizole-induced duodenal ulcer
A test was carried out according to the method of Okabe et al. [S. Okabe et al., Gastrcenterology, 80, 1241 (1981)].
Six Wistar strain rats (male, 200 to 250 g) per group were starved for 24 hours, after which each drug was orally administered, and after 30 minutes, mepirizole was injected subcutaneously at a dose of 200 mg/kg. After 18 hours, the stomach and duodenum were removed and fixed with 3% formalin, after which the areas and depths of the ulcers formed in the duodenum were measured under the binocular stereoscopic microscope (10×). The scores were given in 7 grades depending on the areas and depths of the ulcers, and the sum total of the scores was taken as the ulcer index. The scores were given as follows:
That is to say, the score is 0 at an ulcer area of 0 to 0.2 mm^2, 1 at 0.2 to 1.0 mm^2, 2 at 1 to 3 mm^2, 3 at 3 to 6 mm^2, 4 at 6 to 10 mm^2,5 at 10 mm^2 or more, the ulcer in the condition immediately before perforation is scored as 6, and the ulcer which had caused perforation is scored as 7.
(§1) To a control group was administered 0.5% Tween 80 physiological saline. The inhibition percentage was determined from the following equation: [formula]

[5] = system: Stress ulcer induced by water-immersion; experiment: Anti-ulcer activity: Stress ulcer induced by water-immersion; format: in vivo, Wistar rats
Experimental: (iii) Stress ulcer induced by water-immersion
An experiment was carried out according to the method of Takagi et al. [K. Takagi et al., Jap.
Six Wistar rats (male, 230 to 280 g) per group were starved for 24 hours, after which each drug was orally administered. After 30 minutes, the rats were placed in stress cage, immersed in water at 23° C. to the depth of xiphoid, and allowed to stand therein for 15 hours. Thereafter, the stomach of each rat was removed and then fixed with 3% formalin, after which the areas of the ulcers formed were measured under the binocular stereoscopic microscope (10×), and the sum total of the areas was taken as the ulcer index. To a control group was administered 0.5% Tween 80 physiological saline.
The inhibition percentage was determined from the following equation: [formula]

Reserpine ulcer = experiment: Anti-ulcer activity: Reserpine ulcer; format: in vivo, Wistar strain rats; conditions: oral
Experimental: An experiment was carried out according to the method of Adami et al. [E. Adami et al., Arch. int.
Ten Wistar strain rats (male, 180 to 200 g) per group were starved for 30 hours, after which each drug was orally administered, and after 1 hour, reserpine was injected subcutaneously at a dose of 10 mg/kg. After 18 hours, the stomach was removed and fixed with 3% formalin, and thereafter the lengths of the ulcers formed in the stomach were measured with callipers. The measured values were converted to the scores described below, and the sum total of the scores was taken as the ulcer index.
That is to say, 1 to 5 pin point ulcers are scored as 1, 6 or more pin point ulcers are scored as 2, ulcers of 1 mm or less in length are scored as 1, ulcers of 1 to 2 mm in length are scored as 2, ulcers of 2 to 4 mm in length are scored as 4, and ulcers of 4 mm or more in length are scored as 8.
as §1

COc1cccc(C(O)CNC(=C[N+](=O)[O-])NCCSCc2cc(C)c(CN(C)C)s2)c1 (stereo not drawn) [compound 9, N-{2-[[5-(dimethylamino)methyl-4-methyl-2-thienyl]methylthio]ethyl}-N'-[2-hydroxy-2-(3-methoxyphenyl)ethyl]-2-nitro-1,1-ethenediamine] gave an ED100 (gastric acid secretion [1]; Rattus norvegicus, cumulative, histamine 30 μg/kg/min, read-out: Dose for complete inhibition) of 0.2 mg/kg, a Duration (gastric acid secretion [1]; time from complete inhibition until pH of perfusate became 4) of 190 min and an inhibition in vivo at 1 mg/kg (gastric acid secretion [2]) of 75%. It also gave a Potency ratio ([3]; Cimetidine = 1) of 13.7, a pIC50 ([3]; right atrium, 5×10^-6 M histamine, 30° C., read-out: ID50 (the source's name)) of 6.61 and a Potency ratio (Indomethacin ulcer; Cimetidine = 1) of 39.3. It also gave an ED50 (Indomethacin ulcer; Rattus norvegicus, 5 h, oral, Indomethacin ulcer, read-out: ID50 (the source's name)) of 0.7 mg/kg, an inhibition in vivo at 0.3 mg/kg (Indomethacin ulcer; Rattus norvegicus, 0.3 mg/kg, oral, read-out: Inhibition percentage) of 6% and an inhibition in vivo at 1 mg/kg (Indomethacin ulcer; Rattus norvegicus, 1 mg/kg, oral, read-out: Inhibition percentage) of 70%. It also gave an inhibition in vivo at 3 mg/kg (Indomethacin ulcer; Rattus norvegicus, 3 mg/kg, oral, read-out: Inhibition percentage) of 85%, an inhibition in vivo at 10 mg/kg (Indomethacin ulcer; Rattus norvegicus, 10 mg/kg, oral, read-out: Inhibition percentage) of 97% and an Inhibition percentage ([4]; 1 mg/kg, oral) of -8%. The Inhibition percentage ([4]; 3 mg/kg, oral) was 33%, the Inhibition percentage ([4]; 10 mg/kg, oral) was 93% and the Potency ratio ([4]; Cimetidine = 1) was 37.7. It also gave an ED50 ([4]; Rattus norvegicus, 18 h, oral, mepirizole-induced duodenal ulcer, read-out: ID50 (the source's name)) of 4.3 mg/kg, an Inhibition percentage ([5]; 1 mg/kg, oral) of 33% and an Inhibition percentage ([5]; 3 mg/kg, oral) of 66%. For the same compound, the Inhibition percentage ([5]; 10 mg/kg, oral) was 86%, the Potency ratio ([5]; Cimetidine = 1) was 9.1 and the ED50 ([5]; Rattus norvegicus, 15 h, oral, water-immersion stress ulcer, read-out: ID50 (the source's name)) was 1.7 mg/kg. For the same compound, the Inhibition percentage (Reserpine ulcer; 1 mg/kg) was 29%, the Inhibition percentage (Reserpine ulcer; 3 mg/kg) was 69% and the ED50 (Reserpine ulcer; Rattus norvegicus, 18 h, reserpine ulcer, read-out: ID50 (the source's name)) was 1.8 mg/kg.
